pIC50: −log10 of the molar value.
Target: Focal adhesion kinase 1 (Homo sapiens, UniProt Q05397)
Assay: Inhibitory activity against FAK

Focal adhesion kinase 1, sequence (Q05397 whole entry): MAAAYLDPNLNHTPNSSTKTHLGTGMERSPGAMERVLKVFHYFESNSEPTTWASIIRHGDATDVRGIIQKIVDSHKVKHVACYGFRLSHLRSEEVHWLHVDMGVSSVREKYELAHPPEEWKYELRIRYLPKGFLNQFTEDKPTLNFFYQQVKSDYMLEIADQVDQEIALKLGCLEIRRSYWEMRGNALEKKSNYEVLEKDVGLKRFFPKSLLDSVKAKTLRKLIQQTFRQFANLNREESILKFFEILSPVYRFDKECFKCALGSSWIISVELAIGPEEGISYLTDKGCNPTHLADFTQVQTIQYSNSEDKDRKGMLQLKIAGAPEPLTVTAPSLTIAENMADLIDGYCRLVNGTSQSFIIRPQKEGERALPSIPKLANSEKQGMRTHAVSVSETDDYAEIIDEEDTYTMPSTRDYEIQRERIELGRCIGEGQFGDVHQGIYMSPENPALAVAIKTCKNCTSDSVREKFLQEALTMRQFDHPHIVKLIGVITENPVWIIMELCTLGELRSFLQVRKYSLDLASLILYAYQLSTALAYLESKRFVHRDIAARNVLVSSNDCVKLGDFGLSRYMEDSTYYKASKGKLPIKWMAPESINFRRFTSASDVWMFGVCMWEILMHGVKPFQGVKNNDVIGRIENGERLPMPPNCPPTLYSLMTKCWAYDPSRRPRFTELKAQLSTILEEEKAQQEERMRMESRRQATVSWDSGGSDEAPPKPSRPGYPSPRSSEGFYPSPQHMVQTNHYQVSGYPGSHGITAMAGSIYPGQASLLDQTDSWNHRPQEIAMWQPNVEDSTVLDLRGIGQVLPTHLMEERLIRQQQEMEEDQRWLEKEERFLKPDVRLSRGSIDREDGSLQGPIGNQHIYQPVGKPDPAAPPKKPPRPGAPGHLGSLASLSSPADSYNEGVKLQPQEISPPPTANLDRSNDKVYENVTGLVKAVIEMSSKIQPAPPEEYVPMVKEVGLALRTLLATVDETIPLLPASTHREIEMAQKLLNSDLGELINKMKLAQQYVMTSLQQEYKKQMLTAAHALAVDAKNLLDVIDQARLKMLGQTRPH

COc1cc(Nc2ncc(Br)c(Nc3ccccn3)n2)cc(OC)c1OC
pIC50: 7.00

COc1cc(Nc2ncc3ccn(-c4ccccn4)c3n2)cc(OC)c1OC
pIC50: 6.70
